SMILES strings stand for the structures.

We go through 29 compounds from US20240261249A1, “NOVEL SQUARAMIDE DERIVATIVE AND USE THEREOF” (PUSAN NATIONAL UNIVERSITY INDUSTRY-UNIVERSITY COOPERATION …, priority 2021, published 2024).

This assay deals with Phospho-eIF2α (Ser51). Nature of the assay: Phospho-eIF2α (Ser51) Sandwich ELISA in K562 cells. The assay is classed as cell-based. The note with it: Homo sapiens, K562, 6 h, serum-free RPMI, 10 μM compound, control = 1, read-out: eIF2α phosphorylation, absorbance standardized to control (DMSO-treated) set to 1, at 10 μM. As to the method:
Pathscan Phospho-eIF2α (Ser51) Sandwich ELISA Kit #7286 from Cell signaling was used. The K562 cell line was cultured in serum-free RPMI medium at 37° C. in the presence of 5% CO2. Cells were treated with test compounds at a concentration of 10 μM. Six hours after compound treatment, the cells were lysed with a lysis buffer included in the kit to obtain 50 μg of protein by quantification. Afterwards, ELISA assay was performed according to the manufacturer's protocol to obtain absorbance. The absorbance for each obtained compound was standardized to a value of which the control (DMSO-treated) is set to 1.
(In an ELISA, binding on a coated surface is turned into a signal by an enzyme label.)

For the compound `O=c1c(Nc2ccccc2)c(N[C@H]2CC[C@H](Oc3ccc(C(F)(F)F)cc3)CC2)c1=O` [Compound 8, 3-(Phenylamino)-4-(((1,4-trans)-4-(4-(trifluoromethyl)phenoxy)cyclohexyl)amino)cyclobut-3-ene-1,2-dione], the activity at 10 µM was determined as 95%. To `N#Cc1ccc(O[C@H]2CC[C@H](Nc3c(Nc4ccccc4)c(=O)c3=O)CC2)cc1` [Compound 9, 4-(((1,4-trans)-4-((3,4-Dioxo-2-(phenylamino)cyclobut-1-en-1-yl)amino)cyclohexyl)oxy)benzonitrile] belongs 88%.

For the compound `O=c1c(Nc2ccccc2)c(N[C@H]2CC[C@H](Oc3ccc([N+](=O)[O-])cc3)CC2)c1=O` [Compound 10, 3-(((1,4-trans)-4-(4-Nitrophenoxy)cyclohexyl)amino)-4-(phenylamino)cyclobut-3-ene-1,2-dione], the activity at 10 µM turned out to be 84%. With `CS(=O)(=O)c1ccc(O[C@H]2CC[C@H](Nc3c(Nc4ccccc4)c(=O)c3=O)CC2)cc1` [Compound 11, 3-(((1,4-trans)-4-(4-(Methylsulfonyl)phenoxy)cyclohexyl)amino)-4-(phenylamino)cyclobut-3-ene-1,2-dione] the figure was 94%; with `NS(=O)(=O)c1ccc(O[C@H]2CC[C@H](Nc3c(Nc4ccccc4)c(=O)c3=O)CC2)cc1` [Compound 12, 4-(((1,4-trans)-4-((3,4-Dioxo-2-(phenylamino)cyclobut-1-en-1-yl)amino)cyclohexyl)oxy)benzenesulfonamide], 81%. Take `O=c1c(Nc2cccc(F)c2)c(N[C@H]2CC[C@H](Oc3ccc(C(F)(F)F)cc3)CC2)c1=O` [Compound 13, 3-((3-Fluorophenyl)amino)-4-(((1,4-trans)-4-(4-(trifluoromethyl)phenoxy)cyclohexyl)amino)cyclobut-3-ene]: the activity at 10 µM is 84%. As to `N#Cc1ccc(O[C@H]2CC[C@H](Nc3c(Nc4cccc(F)c4)c(=O)c3=O)CC2)cc1` [Compound 14, 4-(((1,4-trans)-4-((2-((3-Fluorophenyl)amino)-3,4-dioxocyclobut-1-en-1-yl)amino)cyclohexyl)oxy)benzonitrile], the activity at 10 µM is 90%. As to `O=c1c(Nc2cccc(F)c2)c(N[C@H]2CC[C@H](Oc3ccc([N+](=O)[O-])cc3)CC2)c1=O` [Compound 15, 3-((3-Fluorophenyl)amino)-4-(((1,4-trans)-4-(4-nitrophenoxy)cyclohexyl)amino)cyclobut-3-ene-1,2-dione], the activity at 10 µM is 81%. Turning to `CS(=O)(=O)c1ccc(O[C@H]2CC[C@H](Nc3c(Nc4cccc(F)c4)c(=O)c3=O)CC2)cc1` [Compound 16, 3-((3-Fluorophenyl)amino)-4-(((1,4-trans)-4-(4-(methylsulfonyl)phenoxy)cyclohexyl)amino)cyclobut-3-ene-1,2-dione], the activity at 10 µM was determined as 84%. As to `NS(=O)(=O)c1ccc(O[C@H]2CC[C@H](Nc3c(Nc4cccc(F)c4)c(=O)c3=O)CC2)cc1` [Compound 17, 4-(((1,4-trans)-4-((2-((3-Fluorophenyl)amino)-3,4-dioxocyclobut-1-en-1-yl)amino)cyclohexyl)oxy)benzenesulfonamide], the activity at 10 µM was found to be 86%. For the compound `O=c1c(Nc2cccc(Cl)c2)c(N[C@H]2CC[C@H](Oc3ccc(C(F)(F)F)cc3)CC2)c1=O` [Compound 18, 3-((3-Chlorophenyl)amino)-4-(((1,4-trans)-4-(4-(trifluoromethyl)phenoxy)cyclohexyl)amino)cyclobut-3-ene-1,2-dione], the activity at 10 µM came to 71%. To `CS(=O)(=O)c1ccc(O[C@H]2CC[C@H](Nc3c(Nc4cccc(Cl)c4)c(=O)c3=O)CC2)cc1` [Compound 21, 3-((3-Chlorophenyl)amino)-4-(((1,4-trans)-4-(4-(methylsulfonyl)phenoxy)cyclohexyl)amino)cyclobut-3-ene-1,2-dione] belongs 77%. To `NS(=O)(=O)c1ccc(O[C@H]2CC[C@H](Nc3c(Nc4cccc(Cl)c4)c(=O)c3=O)CC2)cc1` [Compound 22, 4-(((1,4-trans)-4-((2-((3-Chlorophenyl)amino)-3,4-dioxocyclobut-1-en-1-yl)amino)cyclohexyl)oxy)benzenesulfonamide] belongs 219%; to `NS(=O)(=O)c1ccc(O[C@H]2CC[C@H](Nc3c(Nc4cccc(C(F)(F)F)c4)c(=O)c3=O)CC2)cc1` [Compound 27, 4-(((1,4-trans)-4-((3,4-Dioxo-2-((3-(trifluoromethyl)phenyl)amino)cyclobut-1-en-1-yl)amino)cyclohexyl)oxy)benzenesulfonamide], 108%. As for `COc1cccc(Nc2c(N[C@H]3CC[C@H](Oc4ccc(C#N)cc4)CC3)c(=O)c2=O)c1` [Compound 34, 4-(((1,4-trans)-4-((2-((3-Methoxyphenyl)amino)-3,4-dioxocyclobut-1-en-1-yl)amino)cyclohexyl)oxy)benzonitrile], the activity at 10 µM stood at 83%. With `COc1cccc(Nc2c(N[C@H]3CC[C@H](Oc4ccc(S(C)(=O)=O)cc4)CC3)c(=O)c2=O)c1` [Compound 36, 3-((3-Methoxyphenyl)amino)-4-(((1,4-trans)-4-(4-(methylsulfonyl)phenoxy)cyclohexyl)amino)cyclobut-3-ene-1,2-dione] the figure was 60%; with `COc1cccc(Nc2c(N[C@H]3CC[C@H](Oc4ccc(S(N)(=O)=O)cc4)CC3)c(=O)c2=O)c1` [Compound 37, 4-(((1,4-trans)-4-((2-((3-Methoxyphenyl)amino)-3,4-dioxocyclobut-1-en-1-yl)amino)cyclohexyl)oxy)benzenesulfonamide], 67%. With `O=c1c(Nc2ccc(F)cc2)c(N[C@H]2CC[C@H](Oc3ccc(C(F)(F)F)cc3)CC2)c1=O` [Compound 38, 3-((4-Fluorophenyl)amino)-4-(((1,4-trans)-4-(4-(trifluoromethyl)phenoxy)cyclohexyl)amino)cyclobut-3-ene-1,2-dione] the figure was 65%.

Take `N#Cc1ccc(O[C@H]2CC[C@H](Nc3c(Nc4ccc(F)cc4)c(=O)c3=O)CC2)cc1` [Compound 39, 4-(((1,4-trans)-4-((2-((4-Fluorophenyl)amino)-3,4-dioxocyclobut-1-en-1-yl)amino)cyclohexyl)oxy)benzonitrile]: the activity at 10 µM stood at 83%. With `O=c1c(Nc2ccc(F)cc2)c(N[C@H]2CC[C@H](Oc3ccc([N+](=O)[O-])cc3)CC2)c1=O` [Compound 40, 3-((4-Fluorophenyl)amino)-4-(((1,4-trans)-4-(4-nitrophenoxy)cyclohexyl)amino)cyclobut-3-ene-1,2-dione] the figure was 82%; with `CS(=O)(=O)c1ccc(O[C@H]2CC[C@H](Nc3c(Nc4ccc(F)cc4)c(=O)c3=O)CC2)cc1` [Compound 41, 3-((4-Fluorophenyl)amino)-4-(((1,4-trans)-4-(4-(methylsulfonyl)phenoxy)cyclohexyl)amino)cyclobut-3-ene-1,2-dione], 62%.

Take `O=c1c(Nc2ccc(Cl)cc2)c(N[C@H]2CC[C@H](Oc3ccc(C(F)(F)F)cc3)CC2)c1=O` [Compound 42, 3-((4-Chlorophenyl)amino)-4-(((1,4-trans)-4-(4-(trifluoromethyl)phenoxy)cyclohexyl)amino)cyclobut-3-ene-1,2-dione]: the activity at 10 µM amounted to 93%. To `N#Cc1ccc(O[C@H]2CC[C@H](Nc3c(Nc4ccc(Cl)cc4)c(=O)c3=O)CC2)cc1` [Compound 43, 4-(((1,4-trans)-4-((2-((4-Chlorophenyl)amino)-3,4-dioxocyclobut-1-en-1-yl)amino)cyclohexyl)oxy)benzonitrile] belongs 87%. To `O=c1c(Nc2ccc(Cl)cc2)c(N[C@H]2CC[C@H](Oc3ccc([N+](=O)[O-])cc3)CC2)c1=O` [Compound 44, 3-((4-Chlorophenyl)amino)-4-(((1,4-trans)-4-(4-nitrophenoxy)cyclohexyl)amino)cyclobut-3-ene-1,2-dione] belongs 147%. With `CS(=O)(=O)c1ccc(O[C@H]2CC[C@H](Nc3c(Nc4ccc(Cl)cc4)c(=O)c3=O)CC2)cc1` [Compound 45, 3-((4-Chlorophenyl)amino)-4-(((1,4-trans)-4-(4-(methylsulfonyl)phenoxy)cyclohexyl)amino)cyclobut-3-ene-1,2-dione] the figure was 79%.

Consider `O=c1c(Nc2ccc(C(F)(F)F)cc2)c(N[C@H]2CC[C@H](Oc3ccc(C(F)(F)F)cc3)CC2)c1=O` [Compound 46, 3-(((1,4-trans)-4-(4-(Trifluoromethyl)phenoxy)cyclohexyl)amino)-4-((4-(trifluoromethyl)phenyl)amino)cyclobut-3-ene-1,2-dione], for which the activity at 10 µM was found to be 71%. To `N#Cc1ccc(O[C@H]2CC[C@H](Nc3c(Nc4ccc(C(F)(F)F)cc4)c(=O)c3=O)CC2)cc1` [Compound 47, 4-(((1,4-trans)-4-((3,4-Dioxo-2-((4-(trifluoromethyl)phenyl)amino)cyclobut-1-en-1-yl)amino)cyclohexyl)oxy)benzonitrile] belongs 51%; to `O=c1c(Nc2ccc(C(F)(F)F)cc2)c(N[C@H]2CC[C@H](Oc3ccc([N+](=O)[O-])cc3)CC2)c1=O` [Compound 48, 3-(((1,4-trans)-4-(4-Nitrophenoxy)cyclohexyl)amino)-4-((4-(trifluoromethyl)phenyl)amino)cyclobut-3-ene-1,2-dione], 91%.

As to `CC(C)(C)c1ccc(Nc2c(N[C@H]3CC[C@H](Oc4ccc(C(F)(F)F)cc4)CC3)c(=O)c2=O)cc1` [Compound 50, 3-((4-(tert-Butyl)phenyl)amino)-4-(((1,4-trans)-4-(4-(trifluoromethyl)phenoxy)cyclohexyl)amino)cyclobut-3-ene-1,2-dione], the activity at 10 µM came to 204%.
